Laboratory results as given in patent US20220016092A1, “METHODS FOR TREATING SYMPTOMS AND DISORDERS ASSOCIATED WITH LYSOSOMAL STORAGE DISEASES” (GENZYME CORPORATION, priority 2019, published 2022).
Values joined by “and” are separate entries in the source; they are usually repeats but may differ in a detail not shown here. Equal values may be shown once.

Tests used:
Type in all cases: in vivo, human
[1] = system: chitotriosidase (CHITO), GM3, GPNMB, ceramide; test: Clinical study in GD-3 patients: exploratory biomarkers
Method: Four exploratory biomarkers were quantified in plasma, serum and/or CSF of GD3 patients at week 4 and week 26: chitotriosidase (CHITO; an enzyme known to be elevated in GD patients) was measured in CSF and serum; GM3 (a glycosphingolipid marker known to be elevated in GD patients) was measured in CSF and plasma; and glycoprotein nonmetastatic melanoma protein B (GPNMB; reportedly a biomarker of neuropathic GD3) was measured in CSF. The results are shown in the table below as percent change from baseline at week 4 and week 26 for each parameter:
In addition, exploratory biomarkers were quantified in CSF of GD3 patients: ceramide (the precursor of GL-1), chitotriosidase (CHITO), GM3, and GPNMB.

[2] = system: plasma GL-1, GL-3, and GM3; test: Study 2: pharmacodynamics in healthy volunteers; conditions: healthy adults; all dose groups (5, 10, 20 mg)
Method: The study enrolled and randomized 36 healthy adults (19 men and 17 women) (n=9 each to group).
Pharmacodynamic endpoints (plasma GL-1, GL-3, and GM3 concentrations) were assessed on Days 1-5, 8, 11, 13, and 14, at 0 hours […]; and on Day 15, at 24 hours after the Day 14 dose.

[3] = system: adult patients with Gaucher disease Type 3; test: Clinical study in GD-3 patients: resting-state fMRI connectivity; conditions: 15 mg/day + imiglucerase, individual Patients 1, 3, 4, 5, 6 (Patient 5 likely non-compliant)
Method: Neurological function-was further evaluated using functional magnetic resonance imaging (fMRI). Patient 2 was excluded because no fMRI data was collected at the Week 52 session. Resting-state fMRI screening sessions were performed at baseline screening, Week 26, and Week 52 visits. Connectivity estimates from four subjects (Patients 1, 3, 4 and 5) were entered into second-level analyses as a “compliant” group. Patient 5 was isolated due to likely non-compliance with study medication, as described above. Analyses were performed as described elsewhere (Smith et al. [2009]).
Spatial analysis of the connectivity between different anatomic regions of the brain is performed to define a correlation coefficient for regressed voxelwise mean intensity.

[4] = 15 mg/day + imiglucerase, Week 4, individual Patients 1-5
[5] = 15 mg/day + imiglucerase, Week 26, individual Patients 1-5

For `CC(C)(NC(=O)O[C@@H]1CN2CCC1CC2)c1csc(-c2ccc(F)cc2)n1` [Compound 2, (S)-quinuclidin-3-yl 2-(2-(4-fluorophenyl)thiazol-4-yl)propan-2-ylcarbamate], the “GM3 in CSF” value ([1]; 15 mg/day + imiglucerase, 4, 26 and 52 weeks, the four of six patients measurable at baseline) was “undetectable”, the “CHITO in CSF, percent change from baseline” value [1, 4] was −5% and +11% and +9% and −6% (2×) and the “CHITO in Serum, percent change from baseline” value [1, 4] was −11% and +8% and −7% and −12% and −1%. The “GM3 in CSF, percent change from baseline” value [1, 4] was −51% and −59% (2×) and 0%, the “GM3 in Plasma, percent change from baseline” value [1, 4] was −70% and −63% and −65% and −62% and −47% and the “GPNMB in CSF, percent change from baseline” value [1, 4] was −63% and +30% and +9% and −6% and −2%. The “CHITO in CSF, percent change from baseline” value [1, 5] was −10% and −11% and +20% and −1% and +68%, the “CHITO in Serum, percent change from baseline” value [1, 5] was −43% and −55% and −1% and +98% and −11% and the “GM3 in CSF, percent change from baseline” value [1, 5] was −51% and 0% (2×) and −59% (2×). For the same compound, the “GM3 in Plasma, percent change from baseline” value [1, 5] was −86% and −69% and −74% and −72% and +10%, the “GPNMB in CSF, percent change from baseline” value [1, 5] was −14% and 0% and +45% and +10% and −8% and the “CSF concentrations of ceramide, CHITO or GPNMB” value ([1]; 15 mg/day + imiglucerase, after 52 weeks) was “no significant changes”. For the same compound, the “Plasma GL-3 over time” value [2] was “decreased with time” and the “Change in Correlation Coefficient (connectivity default mode network - executive function network)” value [3] was “+0.20 (3×) and −0.13 and +0.70”.
